The source made the active and inactive calls.
Key:
[1] = biological target: Tyrosine-protein kinase Lyn (Rattus norvegicus) (UniProt Q07014); test: Inhibition of Lyn phosphorylation in antigen-stimulated rat RBL-2H3 cells at 50 uM by Western blot analysis in presence of dinitrophenylated bovine serum albumin; format: cell-based
[2] = biological target: Mitogen-activated protein kinase 8 (Rattus norvegicus) (UniProt P49185); test: Inhibition of JNK1/2 phosphorylation in antigen-stimulated rat RBL-2H3 cells at 50 uM by Western blot analysis in presence of dinitrophenylated bovine serum albumin; format: cell-based
Chain of Mitogen-activated protein kinase 8 (Rattus norvegicus) (P49185 whole entry): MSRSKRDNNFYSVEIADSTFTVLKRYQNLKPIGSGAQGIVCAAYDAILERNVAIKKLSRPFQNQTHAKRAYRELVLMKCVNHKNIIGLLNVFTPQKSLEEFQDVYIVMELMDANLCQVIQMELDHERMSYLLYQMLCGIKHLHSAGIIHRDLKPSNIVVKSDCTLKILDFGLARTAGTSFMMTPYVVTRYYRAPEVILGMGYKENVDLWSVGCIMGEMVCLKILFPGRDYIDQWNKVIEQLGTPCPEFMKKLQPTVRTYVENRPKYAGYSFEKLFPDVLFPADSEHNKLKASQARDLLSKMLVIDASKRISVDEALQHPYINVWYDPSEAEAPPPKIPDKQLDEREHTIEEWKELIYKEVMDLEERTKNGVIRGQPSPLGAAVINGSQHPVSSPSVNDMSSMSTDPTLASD

[3] = test system: Radical scavenging activity; test: Antioxidant activity assessed as DPPH radical scavenging activity; format: functional
RBL-2H3 [4] = test: Inhibition of degranulation in IgE-sensitized rat RBL-2H3 cells assessed as inhibition of antigen-stimulated intracellular calcium elevation after 30 mins in presence of dinitrophenylated bovine serum albumin; format: functional, cell-based
RBL-2H3 [5] = test: Suppression of degranulation in IgE-sensitized rat RBL-2H3 cells assessed as inhibition of antigen-stimulated histamine release after 30 mins in presence of dinitrophenylated bovine serum albumin; format: functional, cell-based
[6] = biological target: T1, 1-phosphatidylinositol 4,5-bisphosphate phosphodiesterase gamma-1 (Rattus norvegicus) (UniProt P10686); test: Inhibition of PLC-gamma-1/gamma-2 phosphorylation in antigen-stimulated rat RBL-2H3 cells at 50 uM by Western blot analysis in presence of dinitrophenylated bovine serum albumin; format: cell-based
T1 sequence (whole entry): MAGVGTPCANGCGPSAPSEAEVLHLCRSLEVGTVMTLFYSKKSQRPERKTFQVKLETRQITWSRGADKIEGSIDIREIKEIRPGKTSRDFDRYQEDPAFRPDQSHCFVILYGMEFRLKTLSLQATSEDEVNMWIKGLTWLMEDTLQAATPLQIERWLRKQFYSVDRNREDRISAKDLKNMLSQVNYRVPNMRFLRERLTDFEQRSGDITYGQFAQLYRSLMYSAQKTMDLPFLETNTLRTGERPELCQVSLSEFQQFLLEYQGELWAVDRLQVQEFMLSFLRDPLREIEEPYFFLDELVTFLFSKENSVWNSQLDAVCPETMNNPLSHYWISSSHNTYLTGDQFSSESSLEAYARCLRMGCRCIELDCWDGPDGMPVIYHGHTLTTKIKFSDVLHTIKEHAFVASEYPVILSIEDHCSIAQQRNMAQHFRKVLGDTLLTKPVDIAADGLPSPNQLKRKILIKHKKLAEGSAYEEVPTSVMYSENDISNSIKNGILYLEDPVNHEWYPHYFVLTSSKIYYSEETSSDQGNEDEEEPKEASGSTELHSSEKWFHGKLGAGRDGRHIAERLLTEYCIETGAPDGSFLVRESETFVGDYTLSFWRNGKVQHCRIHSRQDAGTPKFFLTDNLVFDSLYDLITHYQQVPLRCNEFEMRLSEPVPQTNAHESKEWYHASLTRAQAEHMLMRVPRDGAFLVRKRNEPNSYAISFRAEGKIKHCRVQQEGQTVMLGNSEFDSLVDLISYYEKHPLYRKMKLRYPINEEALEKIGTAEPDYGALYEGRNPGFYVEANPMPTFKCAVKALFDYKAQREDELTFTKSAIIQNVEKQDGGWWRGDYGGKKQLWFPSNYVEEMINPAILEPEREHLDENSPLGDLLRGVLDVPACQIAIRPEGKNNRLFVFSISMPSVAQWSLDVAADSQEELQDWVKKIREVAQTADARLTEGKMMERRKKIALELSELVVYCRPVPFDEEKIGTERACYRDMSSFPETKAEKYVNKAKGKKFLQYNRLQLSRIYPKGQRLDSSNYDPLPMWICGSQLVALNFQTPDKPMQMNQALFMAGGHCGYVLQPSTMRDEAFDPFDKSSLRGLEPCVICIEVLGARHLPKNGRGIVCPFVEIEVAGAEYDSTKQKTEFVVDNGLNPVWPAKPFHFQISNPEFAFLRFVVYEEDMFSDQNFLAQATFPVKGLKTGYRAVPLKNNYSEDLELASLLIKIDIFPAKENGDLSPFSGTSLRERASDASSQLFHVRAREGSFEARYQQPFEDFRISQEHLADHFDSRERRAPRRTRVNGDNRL

[7] = biological target: Tyrosine-protein kinase SYK (Rattus norvegicus) (UniProt Q64725); test: Inhibition of Syk phosphorylation in antigen-stimulated rat RBL-2H3 cells at 50 uM by Western blot analysis in presence of dinitrophenylated bovine serum albumin; format: cell-based
Chain of Tyrosine-protein kinase SYK (Rattus norvegicus) (Q64725 whole entry, looked up): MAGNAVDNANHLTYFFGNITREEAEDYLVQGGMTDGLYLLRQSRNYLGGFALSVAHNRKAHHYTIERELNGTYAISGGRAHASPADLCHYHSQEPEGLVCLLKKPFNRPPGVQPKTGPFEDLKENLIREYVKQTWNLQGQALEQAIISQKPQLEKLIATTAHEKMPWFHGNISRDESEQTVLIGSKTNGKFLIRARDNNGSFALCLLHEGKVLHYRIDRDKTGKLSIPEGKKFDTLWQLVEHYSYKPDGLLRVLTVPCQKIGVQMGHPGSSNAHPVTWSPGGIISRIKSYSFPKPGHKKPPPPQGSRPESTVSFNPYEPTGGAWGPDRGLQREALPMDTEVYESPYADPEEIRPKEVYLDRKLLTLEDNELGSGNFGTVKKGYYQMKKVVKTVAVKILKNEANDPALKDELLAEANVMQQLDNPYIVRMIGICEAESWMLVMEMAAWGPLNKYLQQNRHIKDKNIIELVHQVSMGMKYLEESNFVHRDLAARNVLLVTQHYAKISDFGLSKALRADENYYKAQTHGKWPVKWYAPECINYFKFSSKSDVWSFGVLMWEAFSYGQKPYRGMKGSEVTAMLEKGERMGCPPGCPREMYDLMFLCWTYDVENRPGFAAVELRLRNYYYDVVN

[8] = biological target: Mitogen-activated protein kinase 1 and 3 (ERK2 and ERK1) (Rattus norvegicus) (UniProt P63086+P21708); test: Inhibition of ERK1/2 phosphorylation in antigen-stimulated rat RBL-2H3 cells at 50 uM by Western blot analysis in presence of dinitrophenylated bovine serum albumin; format: cell-based
Chain of Mitogen-activated protein kinase 1 and 3 (ERK2 and ERK1) (Rattus norvegicus) (P21708 whole entry, looked up): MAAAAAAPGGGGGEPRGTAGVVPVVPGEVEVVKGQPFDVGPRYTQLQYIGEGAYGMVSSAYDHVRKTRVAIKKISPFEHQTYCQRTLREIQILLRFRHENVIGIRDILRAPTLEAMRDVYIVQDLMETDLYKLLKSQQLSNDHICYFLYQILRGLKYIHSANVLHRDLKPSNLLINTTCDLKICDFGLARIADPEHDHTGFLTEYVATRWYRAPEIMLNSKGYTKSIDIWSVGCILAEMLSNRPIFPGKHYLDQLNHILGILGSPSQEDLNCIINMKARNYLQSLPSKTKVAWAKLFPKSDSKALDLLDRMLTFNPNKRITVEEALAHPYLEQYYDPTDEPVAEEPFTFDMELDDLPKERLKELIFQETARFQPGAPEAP
Chain of Mitogen-activated protein kinase 1 and 3 (ERK2 and ERK1) (Rattus norvegicus) (P63086 whole entry, looked up): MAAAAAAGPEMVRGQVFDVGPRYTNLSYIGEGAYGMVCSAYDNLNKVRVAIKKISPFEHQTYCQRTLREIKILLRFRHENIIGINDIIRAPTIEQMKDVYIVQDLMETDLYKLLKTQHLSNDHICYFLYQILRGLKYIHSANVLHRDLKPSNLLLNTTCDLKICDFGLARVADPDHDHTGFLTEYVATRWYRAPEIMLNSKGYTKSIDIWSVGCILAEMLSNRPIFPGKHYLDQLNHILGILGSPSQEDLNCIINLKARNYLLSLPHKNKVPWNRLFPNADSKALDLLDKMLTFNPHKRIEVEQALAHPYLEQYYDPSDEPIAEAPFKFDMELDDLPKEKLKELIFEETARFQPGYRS

RBL-2H3 [9] = test: Suppression of degranulation in IgE-sensitized rat RBL-2H3 cells assessed as inhibition of A-23187-stimulated histamine release after 30 mins; format: functional, cell-based
RBL-2H3 [10] = test: Inhibition of p38 MAPK phosphorylation in antigen-stimulated rat RBL-2H3 cells at 50 uM by Western blot analysis in presence of dinitrophenylated bovine serum albumin; format: cell-based
RBL-2H3 [11] = test: Effect on antigen-stimulated intracellular ROS production in IgE-sensitized CM-H2DCF-DA-treated rat RBL-2H3 cells assessed as increase in 2',7'-dichlorofluorescein oxidation at 50 uM after 30 mins in presence of dinitrophenylated bovine serum albumin; format: functional, cell-based

Chain of Tyrosine-protein kinase Lyn (Rattus norvegicus) (Q07014 whole entry): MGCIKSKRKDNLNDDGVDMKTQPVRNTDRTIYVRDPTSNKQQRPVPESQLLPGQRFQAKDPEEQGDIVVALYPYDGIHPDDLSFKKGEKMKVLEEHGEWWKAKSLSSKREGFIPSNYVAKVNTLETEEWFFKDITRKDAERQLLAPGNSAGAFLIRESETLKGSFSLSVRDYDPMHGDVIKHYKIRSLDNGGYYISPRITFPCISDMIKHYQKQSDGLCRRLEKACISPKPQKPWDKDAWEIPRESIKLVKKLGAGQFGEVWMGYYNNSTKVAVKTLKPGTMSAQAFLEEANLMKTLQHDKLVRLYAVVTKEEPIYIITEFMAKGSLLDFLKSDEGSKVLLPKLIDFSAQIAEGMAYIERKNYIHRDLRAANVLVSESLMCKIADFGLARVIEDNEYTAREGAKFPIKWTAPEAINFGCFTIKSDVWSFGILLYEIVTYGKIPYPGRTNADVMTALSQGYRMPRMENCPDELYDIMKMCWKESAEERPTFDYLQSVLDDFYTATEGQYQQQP

COc1ccc(-c2cc(=O)c3c(O)c(OC)c(OC)cc3o2)cc1OC
< 100 µM: ED50 [3]
inactive: Activity [1] | Activity [2] | Activity (RBL-2H3 [10])
active: Activity (RBL-2H3 [4]) | Activity (RBL-2H3 [5]) Dose-dependent effect | Activity [6] | Activity [7] | Activity [8] | Activity (RBL-2H3 [9]) | Activity (RBL-2H3 [11])

O=C(O[C@@H]1Cc2c(O)cc(O)cc2O[C@@H]1c1cc(O)c(O)c(O)c1)c1cc(O)c(O)c(O)c1
7 µM: ED50 [3]

COc1cc(-c2cc(=O)c3c(OC)c(OC)c(OC)cc3o2)cc(OC)c1OC
< 100 µM: ED50 [3]
inactive: Activity [1] | Activity [2] | Activity (RBL-2H3 [4]) | Activity (RBL-2H3 [10])
active: Activity (RBL-2H3 [5]) Dose-dependent effect | Activity [6] | Activity [7] | Activity [8] | Activity (RBL-2H3 [9]) | Activity (RBL-2H3 [11])

O=C1O[C@H]([C@@H](O)CO)C(O)=C1O
18 µM: ED50 [3]

COc1ccc(OC)c(-c2cc(=O)c3c(OC)c(OC)cc(OC)c3o2)c1
< 100 µM: ED50 [3]
active: Activity (RBL-2H3 [4]) | Activity (RBL-2H3 [5]) Dose-dependent effect | Activity [6] | Activity [7] | Activity [8] | Activity (RBL-2H3 [9]) | Activity (RBL-2H3 [11])
inactive: Activity [1] | Activity [2] | Activity (RBL-2H3 [10])

VITAMIN E
78 µM: ED50 [3]
